Reference: publication PMC13095408, “DBeQ derivative targets vacuolar protein sorting 4 functions in cancer cells and suppresses tumor growth in mice” (The Journal of Pharmacology and Experimental Therapeutics, 2025)

Assays:
Caco-2 permeability = assay type: in vitro ADME; settings: human, 10 μM of compound
Description: (§1) All in vitro absorption, distribution, metabolism, and excretion (ADME) studies were conducted by BioDuro-Sundia. […] Caco-2 permeability, human liver microsomal stability, and human plasma protein binding assays as well as liquid chromatography-mass spectrometry/mass spectrometry analyses were performed following standard protocols previously described in detail ([Kazakova et al, 2023]).

[1] = Human plasma protein binding; assay type: in vitro ADME; settings: 5 μM of compound
Description: as §1

U2OS cells = assay: Live-cell quantification of YOYO-3-positive dead cells; assay type: cell-based
Description: To measure caspase activity, cells cultured in white opaque-bottom 384-well plates were incubated in the presence or absence of 1 μg/mL Dox for 24 hours. Caspase-Glo 8 or 3/7 reagent was then added 1:1 and allowed to incubate for 90 minutes at RT followed by luminescence measurement using the CLARIOstar microplate reader (BMG LABTECH). Signals had background luminescence subtracted and then normalized to the respective Dox-untreated i-GFP-expressing parental controls to obtain relative CASP8-like LETDase or CASP3/7-like DEVDase activities. For live-cell quantification, the cells seeded on black clear-bottom 96-well plates were incubated with the indicated compounds (0.1% to 0.3% DMSO final) in the presence of 100 nM YOYO-3, a cell-impermeant DNA-binding fluorescent probe that stains membrane integrity-impaired, dead cells. […] Phase and fluorescence images were obtained at the indicated intervals using the IncuCyte S3 Live-Cell Analysis System (Essen BioScience; 10× objective) and then analyzed using the Cell-by-Cell Analysis module (Essen BioScience; 9600-0031) of IncuCyte S3 Software (Essen BioScience; Version 2019B Rev2). To quantify the percentage of dead GFP-expressing cells, the GFP and YOYO-3 double-positive cell population was divided by the total GFP-positive cell population.

VPS4B = molecular target: T1, VPS4B (Homo sapiens, UniProt O75351); assay: VPS4B cellular thermal shift assay (CETSA); assay type: cell-based; set-up: endogenous in cells; host or cells: U2OS; settings: 2 μM 4-107, 1 hour, starved U2OS cells
T1 sequence (O75351 1-444): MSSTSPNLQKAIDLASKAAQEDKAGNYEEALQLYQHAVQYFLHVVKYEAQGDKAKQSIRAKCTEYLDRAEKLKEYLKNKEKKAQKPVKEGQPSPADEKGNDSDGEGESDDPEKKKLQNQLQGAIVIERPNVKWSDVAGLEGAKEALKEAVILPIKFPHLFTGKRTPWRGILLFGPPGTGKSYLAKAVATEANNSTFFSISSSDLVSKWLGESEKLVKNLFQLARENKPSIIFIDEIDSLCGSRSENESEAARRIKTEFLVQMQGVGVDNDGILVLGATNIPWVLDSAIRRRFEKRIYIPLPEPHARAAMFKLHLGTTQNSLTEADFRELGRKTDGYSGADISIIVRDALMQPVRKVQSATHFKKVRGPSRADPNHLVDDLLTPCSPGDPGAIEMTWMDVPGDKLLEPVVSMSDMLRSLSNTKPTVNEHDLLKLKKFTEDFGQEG
Description: The VPS4B CETSA was performed as previously described with modification ([Jafari et al, 2014]). In 10-cm dishes, near-confluent U2OS cells were rinsed with 1× DPBS and treated with the indicated compounds in acclimatized SM for 1 hour at 37 °C (0.1% DMSO). Cells were trypsinized, pelleted at 300 × g for 5 minutes, and washed with 1× PBS. After repeat pelleting at 300 × g for 5 minutes, the cells were resuspended in 1× PBS with protease inhibitor cocktail (1:250) and aliquoted into PCR strips with 20 μL per tube. PCR strips for each treatment were heated on a temperature gradient for 3 minutes using a thermal cycler (Bio-Rad Laboratories), followed by incubation at RT for 3 minutes. […] To normalize protein loading for SDS-PAGE, the soluble protein concentration of each 37 °C sample was quantified via the Pierce BCA assay ([…]), and a volume equal to 10 μg of protein was used for all samples from the same treatment. […] Signals were acquired with the Odyssey CLx (LI-COR) and quantified via densitometry using Image Studio version 6 (LI-COR). The remaining VPS4B levels were calculated by first obtaining the ratio of VPS4B:ACTB band intensities of each sample and then normalizing these ratios to that of the respective 37 °C sample. […]

Acute dose MTD study = settings: both sexes, C57BL/6J, mouse, in vivo, ip, fixed daily doses 5, 10, 15, 20 mg/kg, B6 mice; read-out: acute dose MTD (tolerated dose)
Description: All animal studies were performed in accordance with the guidelines of the Institutional Animal Care and Use Committee at the Penn State College of Medicine (IACUC # PRAMS201145989). To determine the maximum tolerated dose (MTD) of 4-107, escalating and acute dose studies were performed. The escalating MTD study used an intra-animal design where each mouse received daily doses of 4-107 that increased 50% each day from a starting dose of 5 mg/kg. Six female C57BL/6J (B6) (The Jackson Laboratory; 000664) were administered 4-107 either orally via oral gavage or via intraperitoneal injection with 3 mice per group. The acute MTD study had groups of mice receive daily consistent doses of 4-107 i.p. Here, B6 mice were administered 4-107 at either 5 (n = 4; 2 males [M], 2 females [F]), 10 (n = 4; 2 M, 2 F), 15 (n = 5; all M), or 20 mg/kg (n = 5; all M). In both studies, 4-107 dissolved in DMSO was mixed into 30% propylene glycol, 5% Tween 80, and 65% of 5% dextrose in water (PTD [vehicle]) with a final DMSO concentration of ≤ 3%. […] BCS was determined by posture and prominence of skeletal features upon visual inspection and palpation, where BCS < 2 indicated a hunched posture and emaciation. […] The MTD was determined as the highest dose of 4-107 administered without mice reaching the toxicity endpoints.

Molecule COc1cccc2c(NCc3ccccc3)nc(NCc3ccccc3)nc12 [Compound 4-107, N^2,N^4-dibenzyl-8-methoxyquinazoline-2,4-diamine] has a Papp A→B at 10 μM (Caco-2 permeability) of 0.03 ×10⁻⁶ cm/s, a Papp B→A at 10 μM (Caco-2 permeability) of 0.3 ×10⁻⁶ cm/s and an efflux ratio at 10 μM (Caco-2 permeability) of 10.3. The fraction unbound at 5 μM [1] was 0.0007, the “cell death (YOYO-3-positive dead cells)” value (U2OS cells; 2 μM 4-107, WT U2OS cells) was “induced cell death in a time-dependent manner” and the “enhanced temporal sensitivity of VPS4A- and VPS4B-deficient cells compared with WT cells” value (U2OS cells; 2 μM 4-107, crVPS4A, crVPS4B vs WT U2OS) was “about 12 hours”. The “decrease of VPS4B Tagg” value (VPS4B) was “approximately 3 °C” and the MTD (Acute dose MTD study) was 5 mg/kg.
